Assay: pKa by Fast UV spectrometric titration (SiriusT3)
Type: physicochemical
Conditions: water/methanol mixtures; Yasuda–Shedlovsky extrapolation from water/methanol titrations, 25 °C; low absorbance, value to be treated with caution
Text: A high-throughput spectrometric screening assay (Fast UV method) using the SiriusT3 (Pion Inc., Billerica, MA, USA) was applied. Samples were titrated under varying water/methanol ratios and apparent pKa values were extrapolated using the Yasuda–Shedlovsky extrapolation. The experimental details are provided in Supplementary Materials. Measured pKa values are presented as means (±SD) and were compared to literature values as well as in silico predictions using the software ADMET Predictor version 9 (Simulations Plus Inc., Lancaster, CA, USA) and ACD/Labs Release 2021.1.2 (Advanced Chemistry Development Inc., Toronto, ON, Canada). […]
r0 2 ∙ ρ ∙IDR∙Dose ൌ DF ∙ PefRsi ∙mdissolved (r0 < 30 μm, hparticle = r0) (S39) […]
spectrometric screening assay (Fast UV method) using an automated titrator system with an incorporated UV‐Vis spectrometer (SiriusT3, Pion Inc., Billerica, MA, USA). […] The pKa values were determined from three titrations with different water/methanol ratios and extrapolation of apparent pKa values in the presence of co‐solvents using the Yasuda‐Shedlovsky extrapolation. Measured pKa values are presented as means with standard deviation and were compared to literature va lues and predictions using the software ADMET Predictor

Cc1ncc(OC[C@@]2(c3cccc(F)c3)C[C@H]2C(=O)Nc2ccc(F)cn2)c(C)n1 [Lemborexant, lemborexant]
pKa: 2.18 ± 0.05
